The values below come from patent US20070117776A1, “Low Dose Therapy Of DNA Methylation Inhibitors” (priority 2005, published 2007).

In data set [1] the test system is intermediate and high-risk MDS and CMML. The experiment in a line: Randomized low dose decitabine schedules in patients with hematological disorders. It counts as in vivo, human. On the procedure:
Patients with intermediate and high-risk MDS and CMML were randomized to one of three decitabine schedules: (1) 20 mg/m^2 infused intravenously over 1 hour, once daily, for five days; (2) 10 mg/m^2, infused intravenously over one hour, once daily, for ten days; (3) 10 mg/m^2, injected subcutaneously twice a day, for five days.
Decitabine was supplied as a lyophilized powder, 50 mg in 20 mL glass vials, for reconstitution with 10 mL sterile water (Supergen, Inc., Dublin Calif., through Pharmachemie B.V., Haarlem, The Netherlands). The reconstituted stock solution contained 5 mg/mL decitabine, 6.8 mg KH2PO4, and approximately 1.1 mg/mL NaOH. The reconstituted solution was further diluted for intravenous infusion or subcutaneous injection with pharmaceutically acceptable cold infusion fluids (physiological saline, glucose-saline, lactated Ringer's solution). The time delay between preparation of the infusion/injection solution was kept as short as practicable, with refrigerated storage prior to administration not to exceed 4-5 hours.
Patients received one course of treatment (as defined above) every 28 days. […] Patients were allowed 40,000 units of erythropoietin weekly for anemia, or GCSF if needed.
The age of 92 treated patients ranged from 31-90 years (median: 65, with 66% of patients being older than 60); according to IPSS prognostic scores, 25% of patients were classified as intermediate-1, 38% as intermediate-2, 19% as high risk, and 17% as having chronic myelomonocytic leukemia (CMML). […] Twenty-seven patients had had prior erythropoietin; 17 had had prior GCSF, and 22 had had other prior therapies.

Data set [2] in a line: Maximum degradation in the infusion estimated for selected infusion schedules. It counts as physicochemical. The settings on record: 0.1-1 mg/mL; for Average degradation rate: estimate assuming linearity. As for the experimental part:
Table 3 summarizes the maximum degradation estimated using a series of infusion schedules (S1 through S7 as denoted in the table) selected to establish degradation limits and acceptable shelf life of the diluted solution. The average degradation rate used for calculations is based on the assumption that degradation in solutions is linear and the slope between the initial and the terminal time point is considered to be worst case. If the solution is prepared appropriately and used immediately, degradation would be minimal. It is recommended that a diluted infusion should not be stored longer than seven hours in a refrigerator for a three hour infusion or longer than 10 hours in a refrigerator for a two hour infusion in order to stay within the 10% maximum limit allowed for degradation.

Where [3] appears, read: all three schedules, 92 treated patients.

Each structure is given as a SMILES string.

With `Nc1ncn([C@H]2C[C@H](O)[C@@H](CO)O2)c(=O)n1` [Decitabine, 4-amino-1-(2-deoxy-β-D-erythro-pentofuranosyl)-1,3,5-triazin-2(1H)-one], the comparison of schedules result in data set [1] (5-day IV arm versus the other arms, after 55 patients were randomized) was “statistically superior”. Further, the “complete remission (patients with CR/patients treated)” value is on record as 24/57 in data set [1] (5-day IV courses: 20 mg/m^2 infused intravenously over 1 hour, once daily, for five days); 4/14 in data set [1] (5-day subcutaneous courses: 10 mg/m^2 injected subcutaneously twice a day, for five days); 4/17 in data set [1] (10-day IV courses: 10 mg/m^2 infused intravenously over one hour, once daily, for ten days). In addition, the myelosuppression entry in data set [1] (10-day IV cohort (10 mg/m^2 over one hour, once daily, ten days) compared with the other schedules) is “more myelosuppression”. Besides, the “CB combined with bone marrow CR” value in data set [1] (setting [3]) is recorded as “Thirteen”. Also, the “Partial remission (PR)” value in data set [1] (setting [3]) is on record as “seven”. For the same compound, the “clinical benefit (CB)” value in data set [1] (setting [3]) is recorded as “Sixteen”. Further, in data set [1] (setting [3]), the “complete remission (CR)” value was determined as 32 patients. Moreover, the “number of treatment courses in patients who achieved CR (median)” value in data set [1] (one course every 28 days) was 3. Besides, the “number of treatment courses in patients who achieved CR (range)” value in data set [1] (one course every 28 days) is reported as “one to six”. Further, the “patients who showed a response (overall)” value in data set [1] (patients who received at least one course of treatment) came out at 76%. Besides, the Average degradation rate is 0.40 %/hr in data set [2] (@ 4° C.) and 2.44 %/hr in data set [2] (@ Room Temperature). The Maximum degradation is recorded as 9.72 % peak area in data set [2] (S1 (6 hr stored @4° C. + 3 hr @ RT during infusion)); 10.12 % peak area in data set [2] (S2 (7 hr stored @4° C. + 3 hr @ RT during infusion)); 7.68 % peak area in data set [2] (S3 (7 hr stored @4° C. + 2 hr @ RT during infusion)); 10.52 % peak area in data set [2] (S4 (8 hr stored @4° C. + 3 hr @ RT during infusion)); 8.08 % peak area in data set [2] (S5 (8 hr stored @4° C. + 2 hr @ RT during infusion)); 8.48 % peak area in data set [2] (S6 (9 hr stored @4° C. + 2 hr @ RT during infusion)). In addition, the Maximum degradation in data set [2] (S7 (10 hr stored @4° C. + 2 hr @ RT during infusion)) is recorded as 8.88 % peak area.
